Values of other authors in US20220257548A1, “ORAL COMBINATION DRUG FORMULATION COMPRISING A NON-STEROIDAL ANTI-INFLAMMATORY DRUG AND A COMPLEMENTARY LOW DOSE OF TRANEXAMIC ACID FOR THE TREATMENT OF MENSTRUAL PAIN ACCOMPANIED WITH EXCESSIVE MENSTRUAL BLOOD LOSS” (ARSTAT, INC, priority 2011, published 2022).
Like-named read-outs stand apart in the source and are kept apart here.

Tests used:
[1] = tested on: menstrual blood loss (MBL) in women
[2] = 6 g/day
[3] = tested on: menstrual blood loss (MBL) in women with menorrhagia; conditions: for mean percent change in MBL: Lysteda clinical study

Compound: O=C(O)Cc1ccccc1Nc1c(Cl)cccc1Cl [diclofenac sodium]
- reduction in MBL ([1]; 50 mg four times daily on Day 1 and three times on the following four days of the menstrual period): 24%

Compound: CC(C)Cc1ccc(C(C)C(=O)O)cc1 (centres unmarked) [ibuprofen]
- reduction in MBL ([1]; 200 mg administered three times daily): 16%
- reduction in MBL ([1]; 400 mg administered four times daily): 32%

Compound: Cc1cccc(Nc2ccccc2C(=O)O)c1C [mefenamic acid]
- reduction in MBL ([1]; 500 mg three times daily during the menstrual period, women clinically diagnosed with menorrhagia (baseline MBL>80 mL)): 30%
- reduction in MBL ([1]; 500 mg three times daily during the menstrual period, women with no clinical diagnosis of menorrhagia (baseline MBL<80 mL)): 19%

Compound: NC[C@H]1CC[C@H](C(=O)O)CC1 [tranexamic acid]
- risk of gastrointestinal adverse events [2]: increased
- limitations on social, leisure and physical activities ([3]; 3900 mg/day regimen): significantly reduces
- difference versus placebo in reduction of large stains, small and large clots and changes in serum ferritin levels ([3]; Lysteda NDA medical review): no statistically significant differences
- subjects returned to normal MBL after treatment (mean on-treatment MBL of less than 80 mL) ([3]; Lysteda NDA medical review): 44%
- mean percent change in MBL ([3]; oral tranexamic acid 1950 mg/day regimen): approximately 25%
- mean percent change in MBL ([3]; oral tranexamic acid 3900 mg/day dose): 39%
